The text below walks through data of patent US20230150970A1, “AMINOPYRIMIDINE DERIVATIVES AND THEIR USE AS ARYL HYDROCARBON RECEPTOR MODULATORS” (DONG-A ST CO., LTD., priority 2020, published 2023).

Data set [1] has as its target T1, AhR (Homo sapiens, UniProt P35869).
T1 sequence (P35869 11-848): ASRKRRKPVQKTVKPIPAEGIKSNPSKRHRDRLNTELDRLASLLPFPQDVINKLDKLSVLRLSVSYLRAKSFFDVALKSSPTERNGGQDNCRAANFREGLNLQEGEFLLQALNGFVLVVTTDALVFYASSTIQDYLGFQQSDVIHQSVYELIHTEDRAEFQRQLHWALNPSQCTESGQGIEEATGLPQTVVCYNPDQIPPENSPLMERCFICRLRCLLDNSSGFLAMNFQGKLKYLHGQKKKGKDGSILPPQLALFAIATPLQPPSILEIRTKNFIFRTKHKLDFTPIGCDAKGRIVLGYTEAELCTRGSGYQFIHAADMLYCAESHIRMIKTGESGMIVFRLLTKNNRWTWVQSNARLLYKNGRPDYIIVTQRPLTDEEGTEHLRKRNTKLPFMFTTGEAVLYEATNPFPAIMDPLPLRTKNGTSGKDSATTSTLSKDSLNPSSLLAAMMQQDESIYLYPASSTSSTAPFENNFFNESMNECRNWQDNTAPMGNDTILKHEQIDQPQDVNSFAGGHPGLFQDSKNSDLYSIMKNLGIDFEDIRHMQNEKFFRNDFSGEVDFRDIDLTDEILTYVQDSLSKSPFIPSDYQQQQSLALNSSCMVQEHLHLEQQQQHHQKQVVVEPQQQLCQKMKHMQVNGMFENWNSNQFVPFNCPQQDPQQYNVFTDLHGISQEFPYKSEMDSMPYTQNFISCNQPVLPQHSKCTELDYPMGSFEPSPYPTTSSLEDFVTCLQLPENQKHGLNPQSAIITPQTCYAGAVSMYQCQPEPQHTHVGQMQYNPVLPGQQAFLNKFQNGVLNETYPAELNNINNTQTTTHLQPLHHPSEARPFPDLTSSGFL

For data set [2], the target named is T2, AhR (Mus musculus, UniProt P30561).
T2 sequence (P30561 1-848): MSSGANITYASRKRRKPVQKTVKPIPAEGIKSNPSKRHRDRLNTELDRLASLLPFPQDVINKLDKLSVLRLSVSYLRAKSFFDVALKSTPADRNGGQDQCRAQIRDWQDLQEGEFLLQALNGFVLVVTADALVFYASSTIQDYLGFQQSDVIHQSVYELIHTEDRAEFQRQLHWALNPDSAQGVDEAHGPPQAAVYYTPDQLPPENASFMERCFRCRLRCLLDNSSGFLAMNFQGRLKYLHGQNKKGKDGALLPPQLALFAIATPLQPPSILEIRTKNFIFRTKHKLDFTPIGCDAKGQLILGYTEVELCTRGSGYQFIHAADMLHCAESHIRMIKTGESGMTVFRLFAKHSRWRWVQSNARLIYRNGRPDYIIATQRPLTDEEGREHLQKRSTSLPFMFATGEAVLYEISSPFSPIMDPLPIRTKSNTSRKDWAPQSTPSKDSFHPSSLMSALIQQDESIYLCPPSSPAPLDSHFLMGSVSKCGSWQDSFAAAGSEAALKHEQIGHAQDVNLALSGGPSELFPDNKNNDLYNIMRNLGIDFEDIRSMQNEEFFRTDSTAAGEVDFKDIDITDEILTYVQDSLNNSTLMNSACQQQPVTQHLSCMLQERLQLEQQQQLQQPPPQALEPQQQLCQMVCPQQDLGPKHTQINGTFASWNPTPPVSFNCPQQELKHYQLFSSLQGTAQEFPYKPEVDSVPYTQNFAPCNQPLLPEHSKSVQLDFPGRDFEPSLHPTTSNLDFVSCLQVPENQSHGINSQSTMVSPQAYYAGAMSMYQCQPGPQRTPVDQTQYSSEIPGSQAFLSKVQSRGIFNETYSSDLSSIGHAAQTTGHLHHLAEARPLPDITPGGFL
As to the kind of experiment: In Vitro Assay 2: XRE-luciferase reporter assay, antagonism in mouse cell line (Hepa1c1c7). The class given is cell-based. The following applies: values marked #: AhR activating ligand kynurenine, 6 hours, read-out: Assay 2: AhR-Luc Mouse Antagonism (IC50). The procedure: In Vitro Assay 2: Antagonism in Mouse Cell Line
Hepa1c1c7 (murine liver cancer cell line) cells co-transfected with XRE-Luc and Nano-Luc plasmids were plated in complete medium and incubated overnight at 37° C. in a CO2 incubator. Following incubation, cells were treated with AhR activating ligands such as kynurenic acid, kynurenine (#) with or without test compounds for 6 hours.
Background: In a reporter assay the amount or activity of a reporter protein is the signal.

Data set [3] concerns the target T1, AhR. As to the kind of experiment: In Vitro Assay 3: XRE-luciferase reporter assay, agonism in human cell line (HepG2). The class given is cell-based. More on the design: endogenous in cells; host or cells: HepG2. The following applies: HepG2, tryptophan free medium, 6 hours, no agonist, read-out: Assay 3: AhR-Luc Human Agonism (EC50). The procedure: In Vitro Assay 3: Agonism in Human Cell Line
HepG2 (human hepatoma cell line) cells co-transfected with XRE-Luc and Nano-Luc plasmids were plated in tryptophan free medium containing 1% of dialyzed fetal bovine serum and incubated overnight at 37° C. in a CO2 incubator. After 24 hours, cells were treated for 6 hours with test compounds or not. […] As a positive control, cells were incubated with TCDD.

In data set [4] the target is T1, AhR. As to the kind of experiment: In Vitro Assay 1: XRE-luciferase reporter assay, antagonism in human cell line (HepG2). The following applies: Assay 1: AhR-Luc Human Antagonism (IC50, nM), unmarked values: kynurenine 200 μM, 6 hours.
Data set [5] deals with T1, AhR. Kind of data set: In Vitro Assay 4: endogenous AhR activity assay (CYP1A1 and CYP1B1 mRNA, qRT-PCR, HepG2 cells). The settings on record: HepG2, read-out: CYP1A1 (% Inhibition).

Where two headings read alike, the source gives them in different places.

For orientation: IC50 means the point on the concentration scale where inhibition reaches its midpoint. On to “4-(4-chlorophenyl)-2-(pyridin-3-yl)-6-(4-(pyrimidin-2-yl)piperazin-1-yl)pyrimidine [Example 90]”, for which the IC50 in data set [1] is 10 to 100 nM.
What is called EC50 is the concentration needed to bring the measured effect to its halfway point. The term inhibition denotes the change of the read-out against control, counted positive when it falls. In the case of `O=C(CCO)N1CCN(c2cc(-c3ccc(Cl)cc3)nc(-c3cccnc3)n2)CC1` [Example 352, 1-(4-(6-(4-chlorophenyl)-2-(pyridin-3-yl)pyrimidin-4-yl)piperazin-1-yl)-3-hydroxypropan-1-one], the IC50 in data set [2] is 10 to 100 nM; in data set [4], less than 10 nM. For the same molecule, the results for the EC50 in data set [3] (class in brackets of the cell) and in data set [3] (number of the cell) were greater than 10000 nM and greater than 30000 nM, respectively. For the same molecule, in data set [5], the inhibition at 0.123 µM was 87.2%.
